Marks after values point to notes of the source that are not given here.
Columns and labels:
human glioma cell U87 [1] = assay: Tumor volume inhibition rate, i.v. dosing; assay type: in vivo, Balb/c nude mice; settings: Mus musculus, iv, TMZ 10 mg·kg^−1, i.v.
Description: In addition, low-dosage 0409 (20 mg·kg^−1, i.v.) and TMZ (10 mg·kg^−1, i.v.) were synchronously used for an assay to determine the volume tumor inhibition rate.

human glioma cells (U87) = assay: In-vitro growth inhibition, MTT method, U87; assay type: cell-based; settings: Glioma cell, 48 h
Description: (§1) The in-vitro growth inhibitory activity of compounds 1 to 8 of the present disclosure against human glioma cells (U87 and LN229), human hepatoma cells (SMMC-7721) and human pancreatic carcinoma cells (Panc1) was studied adopting the MTT method.
U87, LN229, SMMC-7721 and Panc1 cells growing at log phase were separately inoculated into a 96-well plate at a density of 5×10^4 cells/mL, 180 μL/well. […] After 48 h of action, a 5 mg/mL MTT solution (20 μL/well) was added. After the cells were incubated in a CO2 incubator for 3 to 4 h, the supernatant was carefully discarded. After the residual liquid was air-dried, acidified isopropanol (50 μL of concentrated hydrochloric acid dissolved in 500 mL of isopropanol) was added at […], and the plate was shaken on a shaker for 30 min. After the crystals were completely dissolved, absorbance OD values were measured by a microplate reader at 570 nm.
(§2) Cell viability %=(drug-treated cell OD−blank group OD)/(control cell OD−blank group OD)×100
(§3) Cell killing rate %=1−cell viability %

[2] = system: U251MG human glioma cells; assay: In-vitro anti-cancer activity screening, SRB method, U251MG; assay type: cell-based; settings: U-251
Description: (§4) Referring to the method of example 9, two tumor cell lines, U251MG and U251TR human glioma cells, were selected, and temozolomide and the compounds of the present disclosure were subjected to in-vitro anti-cancer activity screening using the SRB method.

[3] = system: human hepatoma cells (SMMC-7721); assay: In-vitro growth inhibition, MTT method, SMMC-7721; assay type: cell-based; settings: 48 h
Description: as §1
(§5) U87, LN229, SMMC-7721 and Panc1 cells growing at log phase were separately inoculated into a 96-well plate at a density of 5×10^4 cells/mL, 180 μL/well. After the cells were attached to the wall, 20 μL of a drug liquid was added to each well, so that the final concentrations of the drug were 0 μM, 5 μM, 10 μM, 20 μM and 50 μM. After 48 h of action, a 5 mg/mL MTT solution (20 μL/well) was added. After the cells were incubated in a CO2 incubator for 3 to 4 h, the supernatant was carefully discarded. After the residual liquid was air-dried, acidified isopropanol (50 μL of concentrated hydrochloric acid dissolved in 500 mL of isopropanol) was added at […], and the plate was shaken on a shaker for 30 min. After the crystals were completely dissolved, absorbance OD values were measured by a microplate reader at 570 nm.
as §2, §3

[4] = system: human glioma cells (LN229); assay: In-vitro growth inhibition, MTT method, LN229; assay type: cell-based; settings: LN-229, 48 h
Description: as §1, §5, §2, §3

[5] = system: U251TR human glioma cells; assay: In-vitro anti-cancer activity screening, SRB method, U251TR; assay type: cell-based; settings: Glioma cell, drug-resistant strain
Description: as §4

[6] = system: human pancreatic carcinoma cells (Panc1); assay: In-vitro growth inhibition, MTT method, Panc1; assay type: cell-based; settings: PANC-1, 48 h
Description: as §1, §5, §2, §3

human glioma cell U87 [7] = assay: Pharmacodynamic study in human glioma cell U87 subcutaneous model; assay type: in vivo, Balb/c nude mice; settings: compounds 20 mg/Kg, q.d.×14 days
Excerpt: The route of administration was intragastric administration ([…]., q.d.×14 days).

human glioma cell U87 [8] = assay: In-vivo antitumor activity, U87 tumor-bearing nude mice, i.g. dosing; set-up: species or system Balb/c nude mice; settings: temozolomide group 30 mg·kg^−1, i.g., q.d., end of the experiment; for Tumor volume: 11 days
Excerpt: The tumor emergence rate was 100%.
The solvent was freshly prepared when needed each day.

[9] = 240 h, Day 10, 20 mg·kg^−1, i.v.
[10] = 264 h, Day 11, 20 mg·kg^−1, i.v.
[11] = 288 h, Day 12, 20 mg·kg^−1, i.v.
[12] = 312 h, Day 13, 20 mg·kg^−1, i.v.
[13] = 336 h, Day 14, 20 mg·kg^−1, i.v.
[14] = 360 h, Day 15, 20 mg·kg^−1, i.v.
[15] = 384 h, Day 16, 20 mg·kg^−1, i.v.
[16] = 408 h, Day 17, 20 mg·kg^−1, i.v.
[17] = 432 h, Day 18, 20 mg·kg^−1, i.v.

Structure (SMILES) | inhibition in vivo at 20 mg/kg (human glioma cell U87 [1]; [9]) | inhibition in vivo at 20 mg/kg (human glioma cell U87 [1]; [10]) | inhibition in vivo at 20 mg/kg (human glioma cell U87 [1]; [11]) | inhibition in vivo at 20 mg/kg (human glioma cell U87 [1]; [12]) | inhibition in vivo at 20 mg/kg (human glioma cell U87 [1]; [13]) | inhibition in vivo at 20 mg/kg (human glioma cell U87 [1]; [14]) | inhibition in vivo at 20 mg/kg (human glioma cell U87 [1]; [15]) | inhibition in vivo at 20 mg/kg (human glioma cell U87 [1]; [16]) | inhibition in vivo at 20 mg/kg (human glioma cell U87 [1]; [17]) | IC50 (human glioma cells (U87)) | IC50 [2] | IC50 [3] | IC50 [4] | IC50 [5] | IC50 [6] | Tumor inhibition rate (human glioma cell U87 [7]; Day 1) | Tumor inhibition rate (human glioma cell U87 [7]; Day 4) | Tumor inhibition rate (human glioma cell U87 [7]; Day 7) | Tumor inhibition rate (human glioma cell U87 [7]; Day 10) | Tumor inhibition rate (human glioma cell U87 [7]; Day 14 (end of the experiment)) | other results
Cn1nnc2c(C(=O)NCCn3[se]c4ccc(F)cc4c3=O)ncn2c1=O [Compound 2, 3,4-dihydro-3-methyl-4-oxo-N-(3(2H)-oxo-5-fluoro-1,2-benzisoselenazol-2-yl)-ethyl-imidazo[5,1-d]-1,2,3,5-tetrazine-8-carboxamide] | 85% | 84.6% | 82.9% | 85.8% | 86.3% | 85.8% | 84.4% | 86.7% | 86.5% | > 500 µM | 363 ± 21.4 µM | 16.4 ± 3.59 µM | 52.2 ± 10.7 µM | > 500 µM | 22.2 ± 8.78 µM | – | – | – | – | – | –
Cn1nnc2c(C(=O)NCCn3[se]c4cc(F)ccc4c3=O)ncn2c1=O [Compound 3, 3,4-dihydro-3-methyl-4-oxo-N-(3(2H)-oxo-6-fluoro-1,2-benzisoselenazol-2-yl)-ethyl-imidazo[5,1-d]-1,2,3,5-tetrazine-8-carboxamide] | 57.9% | 67.1% | 68.4% | 58.8% | 72.3% | 72.7% | 78.6% | 74.8% | 73.8% | 20.4 ± 7.19 µM | 15.4 ± 1.25 µM | 25.4 ± 7.19 µM | 19 ± 1.3 µM | 35.5 ± 4.97 µM | 7 ± 8.3 µM | −9.91% | 47.90% | 87.76% | 91.47% | 88.01% | –
Cn1nnc2c(C(=O)NCCn3[se]c4ccc(Cl)cc4c3=O)ncn2c1=O [Compound 4, 3,4-dihydro-3-methyl-4-oxo-N-(3(2H)-oxo-5-chloro-1,2-benzisoselenazol-2-yl)-ethyl-imidazo[5,1-d]-1,2,3,5-tetrazine-8-carboxamide] | 73.5% | 75.2% | 74.5% | 68.8% | 74% | 80.6% | 84.3% | 84.7% | 81% | 134 ± 15.8 µM | 126 ± 13.3 µM | 5.6 ± 5.84 µM | 44.1 ± 6.09 µM | > 500 µM | 24.2 ± 11.9 µM | – | – | – | – | – | –
Cn1nnc2c(C(=O)NCCn3[se]c4ccc(Br)cc4c3=O)ncn2c1=O [Compound 5, 3,4-dihydro-3-methyl-4-oxo-N-(3(2H)-oxo-5-bromo-1,2-benzisoselenazol-2-yl)-ethyl-imidazo[5,1-d]-1,2,3,5-tetrazine-8-carboxamide] | 27.1% | 27% | 36.8% | 36.8% | 44.6% | 59.5% | 61.2% | 58.5% | 64.4% | 35.8 ± 6.27 µM | 61.7 ± 5.79 µM | 7.77 ± 3.28 µM | 14.4 ± 3.89 µM | 56.2 ± 11.7 µM | 4.41 ± 2.89 µM | – | – | – | – | – | –
Cc1ccc2[se]n(CCNC(=O)c3ncn4c(=O)n(C)nnc34)c(=O)c2c1 [Compound 6, 3,4-dihydro-3-methyl-4-oxo-N-(3(2H)-oxo-5-methyl-1,2-benzisoselenazol-2-yl)-ethyl-imidazo[5,1-d]-1,2,3,5-tetrazine-8-carboxamide] | 91.5% | 91.6% | 90.1% | 88.5% | 88% | 88.9% | 87.5% | 88.5% | 88.3% | 19.2 ± 3.77 µM | 1.26 ± 0.83 µM | 11.2 ± 2.11 µM | 11.3 ± 0.82 µM | 29.4 ± 3.21 µM | 29.3 ± 0.42 µM | 9.05% | 68.76% | 84.09% | 86.55% | 92.48% | –
COc1ccc2[se]n(CCNC(=O)c3ncn4c(=O)n(C)nnc34)c(=O)c2c1 [Compound 7, 3,4-dihydro-3-methyl-4-oxo-N-(3(2H)-oxo-5-methoxy-1,2-benzisoselenazol-2-yl)-ethyl-imidazo[5,1-d]-1,2,3,5-tetrazine-8-carboxamide] | 22% | 29.7% | 37.5% | 48% | 45.5% | 51.4% | 59.7% | 46.3% | 54.7% | 47 ± 2.88 µM | 154 ± 5.64 µM | 27 ± 3.22 µM | 21.2 ± 1.28 µM | > 500 µM | 15.7 ± 6.22 µM | – | – | – | – | – | –
Cn1nnc2c(C(N)=O)ncn2c1=O [TMZ, temozolomide, reference compound] | 36.7% | 58.9% | 38% | 38.1% | 24.4% | 63.9% | 54.3% | 51% | 54.5% | 373 ± 24.1 µM | 431 ± 25.8 µM | – | > 500 µM | > 500 µM | – | 6.77% | 38.14% | 54.29% | 46.23% | 14.26% | Tumor volume (human glioma cell U87 [8]): 209.18±57.83 mm^3; Tumor volume (human glioma cell U87 [8]; listed as Temozolomide): 209.18 ± 57.83*** mm^3; Tumor proliferation inhibition rate (human glioma cell U87 [8]): 62.75%; Tumor weight (human glioma cell U87 [8]): 0.29 ± 0.07 g; Tumor weight (human glioma cell U87 [8]; listed as Temozolomide): 0.29 ± 0.07 g

From patent US20230167120A1, “ARYL-FUSED ISOSELENAZOLE COMPOUND CONTAINING TETRAZINE SUBSTITUENT, SYNTHESIS METHOD THEREFOR, AND USE THEREOF” (KEAISE MEDICINE WUHAN CORP., priority 2020, published 2023)
